# Measured values as given in publication PMC9271885 (eBioMedicine, 2022).
# Where “and” joins values, the source holds several entries; their conditions need not be identical. Equal values may be shown once. Read-outs that look alike come from different tables or passages of the source.
# Columns and labels:
# Vero E6 cells = assay: in vitro; conditions: African green monkey, 2 days
# Method: One day prior to infection, 96-well culture plates were seeded with 5×10^4 Vero E6 or Caco-2 cells in 100µL assay medium per well (containing 2.5% FCS). […] After 15min, a preset amount of virus diluted in 25µL of assay medium was added to the wells. This quantity of virus was calibrated so that the viral replication was still in the exponential growth phase for the readout, as previously described, [28], [29] which correspond here to 150 TCID50 per well. Four “cell control” wells were supplemented with 50µL of assay medium without any compounds or virus. On each culture plate, a positive control compound (Remdesivir, BLDpharm) was added in duplicate with eight 2-fold serial dilutions (0.16µM to 20µM). Plates were incubated for 2 days at 37°C prior to quantification of the viral genome by real-time RT-PCR as described below. For the determination of the 50% cytotoxic concentrations (CC50; compound concentration required to reduce by 50% cell viability), the same culture conditions were used, without addition of the virus, and cell viability was measured using CellTiter Blue® (Promega) following manufacturer's instructions. EC50, EC90 and CC50 were determined using logarithmic interpolation as previously described.[28] The selectivity index of the compounds was calculated as the ratio of the CC50 over the EC50.
# [1] = Quantification of TIZ in plasma, lung and nasal turbinates of hamsters (HPLC-UV); assay type: in vivo, Syrian hamsters
# Method: Quantification of TIZ in plasma and lung tissues was performed by high-performance liquid chromatography with UV detection method (Alliance 2695, Waters, USA) with a lower limit of quantification of 0.01µg/mL. The mobile phase consisted of 0.1% FA in water and 0.1% of FA in ACN (65:35, v/v). The chromatographic separation was achieved using an isocratic mode with an Xbridge BEH C18 2.5μm 4.6 × 100mm column. Peak area was quantified at 340nm using the Waters 2489 detector. TIZ was extracted by a simple protein precipitation method, using acetonitrile for plasma and ice-cold acetonitrile for clarified lung homogenates. Briefly, 200µL of samples matrix was added to 1000µL of acetonitrile solution containing the internal standard (thiopental), then vortexed for 2min followed by centrifugation for 10min at 4°C. The supernatant medium was evaporated under vacuum, then transferred to a 1.5mL Eppendorf tube. The dried residue was reconstituted with 100µl of ACN:water (50:50), vortexed for 30 seconds and centrifuged again for 10min at 4°C. The supernatant was transferred to an autosampler and 50µL was injected.
# We used tissues from infected animals sacrificed at 3 dpi following multiple administration (animals from Figure 3); an additional group of uninfected animals treated with a single dose of 13.5mg was used as control. TIZ concentration in plasma and in lung was quantified at 1, 2 and 4 hours post treatment for the single dose analysis (group of 3 animals) and at 12 hours after the last administration for the multiple dose analysis (group of 6 animals).
# [2] = multiple dose NTZ 500mg/kg/day BID oral, at 3 dpi, 12 h (trough), individual values
# [3] = multiple dose NTZ 750mg/kg/day TID oral, at 3 dpi, 12 hours (trough), individual values
# [4] = multiple dose, infected animals, nitazoxanide per os 500 mg/kg/day BID, 12h post-administration, individual animals
# [5] = multiple dose, infected animals, nitazoxanide per os 750 mg/kg/day TID, 12h post-administration, individual animals
# [6] = single dose nitazoxanide 13.5mg, uninfected animals, 1h post-administration, individual animals
# [7] = single dose nitazoxanide 13.5mg, uninfected animals, 2h post-administration, individual animals
# [8] = single dose nitazoxanide 13.5mg, uninfected animals, 4h post-administration, individual animals
# [9] = single oral dose 13.5mg NTZ, uninfected hamsters, 1 h post-treatment, individual values
# [10] = single oral dose 13.5mg NTZ, uninfected hamsters, 2 h post-treatment, individual values
# [11] = single oral dose 13.5mg NTZ, uninfected hamsters, 4 h post-treatment, individual values
compound,measurement,setting,value
"O=C(Nc1ncc([N+](=O)[O-])s1)c1ccccc1O [TIZ, tizoxanide]",CC50,Vero E6 cells,> 100 µM
same,Kp at 12 h,"[1]; Syrian, hamster, in vivo, 2.8 mg/kg/day TID, multiple dose, infected animals, nitazoxanide IN 2,8 mg/kg/day TID, 12h post-administration, individual animals, read-out: Lung to plasma ratio",12.8
same,concentration at 12 h,"[1]; Syrian, hamster, in vivo, 2.8 mg/kg/day TID, multiple dose, infected animals, nitazoxanide IN 2,8 mg/kg/day TID, 12h post-administration, individual animals, read-out: Tizoxanide concentration in blood",8 ng/mL
same,concentration at 12 h,"[1]; Syrian, hamster, in vivo, 2.8 mg/kg/day, multiple dose, infected animals, nitazoxanide IN 2,8 mg/kg/day TID, 12h post-administration, individual animals, read-out: Tizoxanide concentration in blood",30 nM
same,concentration at 12 h,"[1]; Syrian, hamster, in vivo, 2.8 mg/kg/day, multiple dose, infected animals, nitazoxanide IN 2,8 mg/kg/day TID, 12h post-administration, individual animals, read-out: Tizoxanide concentration in lungs",11.7 ng/mL and 40 nM
same,concentration at 12 h,"[1]; Syrian, hamster, in vivo, 750 mg/kg/day TID, multiple dose, infected animals, nitazoxanide per os 750 mg/kg/day TID, 12h post-administration, individual animals, read-out: Tizoxanide concentration in lungs",40 nM
same,Kp at 12 h,"[1]; hamster, in vivo, 2.8 mg/kg/day, multiple dose NTZ 2.8mg/kg/day TID intranasal, at 3 dpi, 12 hours (trough), read-out: L/p ratio",1280
same,concentration at 12 h,"[1]; hamster, in vivo, 2.8 mg/kg/day, multiple dose, infected animals, nitazoxanide IN 2,8 mg/kg/day TID, 12h post-administration, individual animals, read-out: Tizoxanide concentration in lungs",103 ng/g
same,concentration at 12 h,"[1]; hamster, in vivo, 2.8 mg/kg/day, multiple dose, infected animals, nitazoxanide IN 2,8 mg/kg/day TID, 12h post-administration, individual animals, read-out: Tizoxanide concentration in nasal turbinates",14.8 ng/mL and 60 nM
same,Kp,"[1]; hamster, in vivo, 13.5 mg, after single-dose administration (13.5mg NTZ), hamsters, read-out: lung/plasma ratio",0.022 to 0.048
same,concentration at 1 h,"[1]; hamster, in vivo, 13.5 mg, single dose nitazoxanide 13.5mg, uninfected animals, 1h post-administration, individual animals, read-out: Tizoxanide concentration in lungs",21.5 ng/mL and 80 nM and 161 ng/g
same,Kp at 2 h,"[1]; hamster, in vivo, 13.5 mg, single dose nitazoxanide 13.5mg, uninfected animals, 2h post-administration, individual animals, read-out: Lung to plasma ratio",0.027
same,concentration at 2 h,"[1]; hamster, in vivo, 13.5 mg, single dose nitazoxanide 13.5mg, uninfected animals, 2h post-administration, individual animals, read-out: Tizoxanide concentration in lungs",17.1 ng/mL and 60 nM and 132 ng/g
same,Kp at 4 h,"[1]; hamster, in vivo, 13.5 mg, single dose nitazoxanide 13.5mg, uninfected animals, 4h post-administration, individual animals, read-out: Lung to plasma ratio",0.042
same,concentration at 4 h,"[1]; hamster, in vivo, 13.5 mg, single dose nitazoxanide 13.5mg, uninfected animals, 4h post-administration, individual animals, read-out: Tizoxanide concentration in lungs",8.3 ng/mL and 30 nM and 61 ng/g
same,concentration at 12 h,"[1]; hamster, in vivo, 500 mg/kg/day BID, multiple dose NTZ 500mg/kg/day BID oral, infected hamsters at 3 dpi, 12 h after last dose (trough), mean ± SD, read-out: TIZ concentration Plasma",940 ng/mL and 940 nM
same,concentration at 12 h,"[1]; hamster, in vivo, 500 mg/kg/day BID, multiple dose, infected animals, nitazoxanide per os 500 mg/kg/day BID, 12h post-administration, individual animals, read-out: Tizoxanide concentration in lungs",8.1 ng/mL and 30 nM and 57 ng/g
same,concentration at 12 h,"[1]; hamster, in vivo, 750 mg/kg/day TID, multiple dose NTZ 750mg/kg/day TID oral, infected hamsters at 3 dpi, 12 hours after last dose (trough), mean ± SD, read-out: TIZ concentration Plasma",1490 ng/mL and 1.49 µM
same,concentration at 1 h,"[1]; hamster, in vivo, po, 13.5 mg, single oral dose 13.5mg NTZ, uninfected hamsters, 1 h post-treatment, mean ± SD, read-out: TIZ concentration Plasma",5160 ng/mL and 5.16 µM
same,Kp at 2 h,"[1]; hamster, in vivo, po, 13.5 mg, single oral dose 13.5mg NTZ, uninfected hamsters, 2 h post-treatment, individual values, read-out: L/p ratio (%)",0.027
same,concentration at 2 h,"[1]; hamster, in vivo, po, 13.5 mg, single oral dose 13.5mg NTZ, uninfected hamsters, 2 h post-treatment, mean ± SD, read-out: TIZ concentration Plasma",3390 ng/mL and 3.39 µM
same,Kp at 4 h,"[1]; hamster, in vivo, po, 13.5 mg, single oral dose 13.5mg NTZ, uninfected hamsters, 4 h post-treatment, individual values, read-out: L/p ratio (%)",0.042
same,concentration at 4 h,"[1]; hamster, in vivo, po, 13.5 mg, single oral dose 13.5mg NTZ, uninfected hamsters, 4 h post-treatment, mean ± SD, read-out: TIZ concentration Plasma",820 ng/mL and 820 nM
same,TIZ concentration Lung (µM/g),"[1]; multiple dose NTZ 2.8mg/kg/day TID intranasal, at 3 dpi, 12 hours (trough), individual values",0.39 µM/g and 0.41 µM/g
same,L/p ratio (%),[1]; [2],2.7% and 32.8%
same,TIZ concentration Lung (µM/g),[1]; [2],0.21 µM/g
same,L/p ratio (%),[1]; [3],2.9% and 6.3%
same,TIZ concentration Lung (µM/g),[1]; [3],0.28 µM/g and 0.60 µM/g
same,Tizoxanide concentration in lungs,"[1]; multiple dose, infected animals, nitazoxanide IN 2,8 mg/kg/day TID, 12h post-administration, individual animals",0.39 µM/g of lung and 11.3 ng/mL and 110 ng/g of lung and 0.41 µM/g of lung
same,Lung to plasma ratio,[1]; [4],2.7% and 32.8%
same,Tizoxanide concentration in blood,[1]; [4],40 ng/mL and 159 ng/mL and 2131 ng/mL and 2192 ng/mL and 171 ng/mL
same,Tizoxanide concentration in lungs,[1]; [4],0.21 µM/g of lung and 10.6 ng/mL and 56 ng/g of lung
same,concentration at 12 h,"[1]; multiple dose, infected animals, nitazoxanide per os 500 mg/kg/day BID, 12h post-administration, individual animals, read-out: Tizoxanide concentration in blood",150 nM and 600 nM and 8030 nM and 8260 nM and 640 nM
same,concentration at 12 h,"[1]; multiple dose, infected animals, nitazoxanide per os 500 mg/kg/day BID, 12h post-administration, individual animals, read-out: Tizoxanide concentration in lungs",40 nM
same,Lung to plasma ratio,[1]; [5],2.9% and 6.3%
same,Tizoxanide concentration in blood,[1]; [5],40 ng/mL and 2494 ng/mL and 79 ng/mL and 2205 ng/mL and 1637 ng/mL and 2500 ng/mL
same,Tizoxanide concentration in lungs,[1]; [5],9.7 ng/mL and 73 ng/g of lung and 0.28 µM/g of lung and 21.0 ng/mL and 158 ng/g of lung and 0.60 µM/g of lung
same,concentration at 12 h,"[1]; multiple dose, infected animals, nitazoxanide per os 750 mg/kg/day TID, 12h post-administration, individual animals, read-out: Tizoxanide concentration in blood",150 nM and 9400 nM and 300 nM and 8310 nM and 6170 nM and 9430 nM
same,concentration at 12 h,"[1]; multiple dose, infected animals, nitazoxanide per os 750 mg/kg/day TID, 12h post-administration, individual animals, read-out: Tizoxanide concentration in lungs",80 nM
same,Lung to plasma ratio,[1]; [6],4.8% and 2.2%
same,Tizoxanide concentration in blood,[1]; [6],3319 ng/mL and 10008 ng/mL and 2151 ng/mL
same,Tizoxanide concentration in lungs,[1]; [6],0.61 µM/g of lung and 26.7 ng/mL and 224 ng/g of lung and 0.84 µM/g of lung
same,concentration at 12 h,"[1]; single dose nitazoxanide 13.5mg, uninfected animals, 1h post-administration, individual animals, read-out: Tizoxanide concentration in blood",12510 nM and 37730 nM and 8110 nM
same,concentration at 12 h,"[1]; single dose nitazoxanide 13.5mg, uninfected animals, 1h post-administration, individual animals, read-out: Tizoxanide concentration in lungs",100 nM
same,Tizoxanide concentration in blood,[1]; [7],1477 ng/mL and 3758 ng/mL and 4927 ng/mL
same,Tizoxanide concentration in lungs,[1]; [7],0.50 µM/g of lung
same,concentration at 12 h,"[1]; single dose nitazoxanide 13.5mg, uninfected animals, 2h post-administration, individual animals, read-out: Tizoxanide concentration in blood",5570 nM and 14170 nM and 18580 nM
same,Tizoxanide concentration in blood,[1]; [8],344 ng/mL and 666 ng/mL and 1459 ng/mL
same,Tizoxanide concentration in lungs,[1]; [8],0.23 µM/g of lung
same,concentration at 12 h,"[1]; single dose nitazoxanide 13.5mg, uninfected animals, 4h post-administration, individual animals, read-out: Tizoxanide concentration in blood",1300 nM and 2510 nM and 5500 nM
same,L/p ratio (%),[1]; [9],4.8% and 2.2%
same,TIZ concentration Lung,[1]; [9],0.16 µg/g and 0.22 µg/g
same,TIZ concentration Lung (µM/g),[1]; [9],0.61 µM/g and 0.84 µM/g
same,TIZ concentration Lung,[1]; [10],0.13 µg/g
same,TIZ concentration Lung (µM/g),[1]; [10],0.50 µM/g
same,TIZ concentration Lung,[1]; [11],0.06 µg/g
same,TIZ concentration Lung (µM/g),[1]; [11],0.23 µM/g
